“Also recorded” adds a separate entry of the source.
These compounds were tested on Bleomycin-induced lung fibrosis (assay: Bleomycin-induced lung fibrosis model). Conditions: 100 mg/kg pirfenidone BID, oral, days 7 to 21, bleomycin 1.5 U/kg.
Description: Treatment group animals (n=10/group) received 1.5 U/kg of clinical bleomycin via oropharyngeal route on day 0 under inhalant anaesthesia. Animals were monitored for tolerance of the bleomycin administration procedure and subsequently bodyweights of all mice were recorded at least 3 times per week during the study. […] All treatments were administered orally.
At day 21, lungs were harvested from each animal and weighed, followed by fixation in 10% neutral buffered formalin (NBF) for histopathological analysis. The lung samples were processed and embedded with all lobes from each mouse in one paraffin block. Coronal sections through the four major lobes were stained with Masson's Trichrome. For each animal, consecutive lung fields were examined at 200×magnification in a raster pattern using a 20×objective lens and a 10×ocular lens. […] The Fibrotic Index was calculated as the sum of the modified Ashcroft field scores divided by the number of fields examined.

Compound	In life mortality [%]
Cc1ccc(=O)n(-c2ccccc2)c1 [pirfenidone, reference compound]	0

What follows are compounds tested against T1, USP30 (Homo sapiens, UniProt Q70CQ3) (assay: USP30 biochemical IC50 assay). Conditions: not given.
T1 sequence (Q70CQ3 1-517): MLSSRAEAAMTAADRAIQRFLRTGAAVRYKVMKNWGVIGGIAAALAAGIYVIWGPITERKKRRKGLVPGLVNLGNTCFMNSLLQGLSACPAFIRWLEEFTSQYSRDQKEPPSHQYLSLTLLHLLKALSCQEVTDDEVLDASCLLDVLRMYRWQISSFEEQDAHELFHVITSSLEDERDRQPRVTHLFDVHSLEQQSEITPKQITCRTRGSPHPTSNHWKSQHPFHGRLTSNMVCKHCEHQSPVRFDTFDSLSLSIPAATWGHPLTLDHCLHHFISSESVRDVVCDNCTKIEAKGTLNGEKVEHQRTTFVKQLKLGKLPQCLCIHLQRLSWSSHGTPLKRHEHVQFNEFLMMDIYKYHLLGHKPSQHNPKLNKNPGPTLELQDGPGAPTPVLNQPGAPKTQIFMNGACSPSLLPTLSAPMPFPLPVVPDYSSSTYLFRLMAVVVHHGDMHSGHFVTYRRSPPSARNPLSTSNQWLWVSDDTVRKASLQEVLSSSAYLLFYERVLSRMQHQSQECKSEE
Description: Dilution plates were prepared at 21 times the final concentration (2100 μM for a final concentration of 100 μM) in 50% DMSO in a 96-well polypropylene V-bottom plate (Greiner #651201). A typical 8-point dilution series would be 100, 30, 10, 3, 1, 0.3, 0.1, 0.03 μM final. Reactions were performed in duplicate in black 384 well plates (small volume, Greiner 784076) in a final reaction volume of 21 μl. Either 1 μl of 50% DMSO or diluted compound was added to the plate. USP30 was diluted in reaction buffer (40 mM Tris, pH 7.5, 0.005% Tween 20, 0.5 mg/ml BSA, 5 mM beta-mercaptoethanol) to the equivalent of 0.05 μl/well and 10 μl of diluted USP30 was added to the compound. Enzyme and compound were incubated for 30 min at room temp. Reactions were initiated by the addition of 50 nM of TAMRA labelled peptide linked to ubiquitin via an iso-peptide bond as fluorescence polarisation substrate. Reactions were read immediately after addition of substrate and following a 2-hour incubation at room temperature. Readings were performed on a Pherastar Plus (BMG Labtech). λ Excitation 540 nm; λ Emission 590 nm.

IC50 [nM]	Compound
< 10	N#CN1CC[C@H](CNC(=O)c2cnn(-c3cccc(Cl)c3)n2)C1 [Example 7, (R)-2-(3-chlorophenyl)-N-((1-cyanopyrrolidin-3-yl)methyl)-2H-1,2,3-triazole-4-carboxamide]
10 to 100	C[C@@H]1C(CNC(=O)c2ncn(-c3cccc(C#N)c3)n2)CCN1C#N (mixture of isomers) [Example 4, N-(((2R,3R)-1-cyano-2-methylpyrrolidin-3-yl)methyl)-1-(3-cyanophenyl)-1H-1,2,4-triazole-3-carboxamide and N-(((2R,3S)-1-cyano-2-methylpyrrolidin-3-yl)methyl)-1-(3-cyanophenyl)-1H-1,2,4-triazole-3-carboxamide]
100 to 1000	N#CN1CC[C@H](CNC(=O)c2cn(-c3cccc(Cl)c3)nn2)C1 [Example 6, (R)-1-(3-chlorophenyl)-N-((1-cyanopyrrolidin-3-yl)methyl)-1H-1,2,3-triazole-4-carboxamide]
100 to 1000	N#CN1CCC(CNC(=O)c2ncn(-c3ccccc3)n2)C1 (stereo not shown) [Example 3, N-((1-cyanopyrrolidin-3-yl)methyl)-1-phenyl-1H-1,2,4-triazole-3-carboxamide]

Same assay, conditions: Examples of WO 2017/103614

IC50 [nM]	Compound
100 to 1000	N#CN1CC[C@H](CNC(=O)c2cnc(-c3ccccc3)[nH]2)C1 [Example 64, (R)-N-((1-cyanopyrrolidin-3-yl)methyl)-2-phenyl-1H-imidazole-5-carboxamide]
100 to 1000	N#CN1CC[C@H](CNC(=O)c2cc(-c3ccccc3)on2)C1 [Example 58, (R)-N-((1-cyanopyrrolidin-3-yl)methyl)-5-phenylisoxazole-3-carboxamide]
100 to 1000	N#CN1CCC(CNC(=O)c2cc(-c3ccccc3)no2)C1 (stereo not shown) [Example 21, N-((1-cyanopyrrolidin-3-yl)methyl)-3-phenylisoxazole-5-carboxamide]
10 to 100	N#Cc1cccc(-c2nnc(C(=O)NC[C@@H]3CCN(C#N)C3)o2)c1 [Example 69, (S)-5-(3-cyanophenyl)-N-((1-cyanopyrrolidin-3-yl)methyl)-1,3,4-oxadiazole-2-carboxamide]
100 to 1000	N#CN1CC[C@H](CNC(=O)c2cc(-c3ccc(Cl)cc3)no2)C1 [Example 67, (R)-3-(4-chlorophenyl)-N-((1-cyanopyrrolidin-3-yl)methyl)isoxazole-5-carboxamide]
100 to 1000	N#CN1CCC(CNC(=O)c2csc(-c3ccccc3)n2)C1 (stereo not shown) [Example 26, N-((1-cyanopyrrolidin-3-yl)methyl)-2-phenylthiazole-4-carboxamide]
10 to 100	N#CN1CC[C@H](CNC(=O)c2cc(-c3cccc(Cl)c3)no2)C1 [Example 55, (R)-3-(3-chlorophenyl)-N-((1-cyanopyrrolidin-3-yl)methyl)isoxazole-5-carboxamide]
10 to 100	N#Cc1cccc(-n2cnc(C(=O)NC[C@H]3CCN(C#N)C3)c2)c1 [Example 71, (R)-1-(3-cyanophenyl)-N-((1-cyanopyrrolidin-3-yl)methyl)-1H-imidazole-4-carboxamide]
100 to 1000	N#CN1CC[C@H](CNC(=O)c2cc(-c3ccccc3Cl)no2)C1 [Example 66, (R)-3-(2-chlorophenyl)-N-((1-cyanopyrrolidin-3-yl)methyl)isoxazole-5-carboxamide]
100 to 1000	N#CN1CCC(CNC(=O)c2ncc(-c3ccccc3)o2)C1 (stereo not shown) [Example 38, N-((1-cyanopyrrolidin-3-yl)methyl)-5-phenyloxazole-2-carboxamide]
100 to 1000	N#CN1CC[C@H](CNC(=O)c2ccn(-c3ccccc3)n2)C1 [Example 63, (R)-N-((1-cyanopyrrolidin-3-yl)methyl)-1-phenyl-1H-pyrazole-3-carboxamide]
100 to 1000	N#CN1CCC(CNC(=O)c2cc(-c3ccccc3)[nH]n2)C1 (stereo not shown) [Example 22, N-((1-cyanopyrrolidin-3-yl)methyl)-5-phenyl-1H-pyrazole-3-carboxamide]
100 to 1000	N#Cc1ccc(-n2cnc(C(=O)NC[C@H]3CCN(C#N)C3)c2)cc1 [Example 72, (R)-1-(4-cyanophenyl)-N-((1-cyanopyrrolidin-3-yl)methyl)-1H-imidazole-4-carboxamide]
100 to 1000	N#CN1CCC(CNC(=O)c2cc(-c3ccccc3F)n[nH]2)C1 (stereo not shown) [Example 31, N-((1-cyanopyrrolidin-3-yl)methyl)-3-(2-fluorophenyl)-1H-pyrazole-5-carboxamide]
100 to 1000	N#CN1CC[C@H](CNC(=O)c2nc(-c3ccccc3)cs2)C1 [Example 62, (R)-N-((1-cyanopyrrolidin-3-yl)methyl)-4-phenylthiazole-2-carboxamide]
10 to 100	N#CN1CC[C@H](CNc2ncc(-c3ccccc3)s2)C1 [Example 9, (R)-3-(((5-phenylthiazol-2-yl)amino)methyl)pyrrolidine-1-carbonitrile]
100 to 1000	N#CN1CCC(CNC(=O)c2cnc(-c3ccccc3)o2)C1 (stereo not shown) [Example 20, N-((1-cyanopyrrolidin-3-yl)methyl)-2-phenyloxazole-5-carboxamide]

Each compound was assayed on Unilateral ureteral obstruction (UUO) kidney fibrosis (assay: Unilateral ureteral obstructive kidney disease model (UUO)). Conditions: UUO, 20 mg/kg IN-1130 QD IP, days 0 to 10.
Format: in vivo
Source text: In this study, adult C57B16 female mice at 7 to 8 weeks of age with average weight of around 18 to 20 g were used. To complete the ureteral obstruction, the abdominal cavity was exposed via a midline incision and the left ureter was ligated at two points with 4-0 silk and dissected. Successful unilateral ureteral obstruction was later confirmed by observation of dilation of the renal pelvis due to hydronephrosis.
At harvest, mice were anesthetised and both kidneys were harvested; the contralateral kidney serves as control for the UUO kidney. The kidneys were dissected along median line into two parts, of which one side was fixed in formaldehyde, for paraffin embedding and the other was snap frozen for protein or RNA isolation.
Formalin fixed tissue were embedded in paraffin blocks and cut into 5 μm sections. All damaged kidneys, 5 contralateral kidneys from each group and 3 sham kidneys were analysed (in total n=80 kidney samples). Picrosirius Red and α-SMA stain was performed to evaluate fibrotic changes and myofibroblast activation. Analysis was performed by a pathology trained technical staff member, without knowledge of the animal group assignment. High magnification images were taken of each slide an analysed for the surface area covered by the stain.

Compound	In life mortality [%]
Cc1cccc(-c2[nH]c(Cc3cccc(C(N)=O)c3)nc2-c2ccc3nccnc3c2)n1 [IN-1130, reference compound]	0

These compounds were tested on diet-induced NAFLD/NASH (assay: Diet-induced model of NAFLD/NASH). Conditions: diet-induced NAFLD/NASH, P.O., 8 weeks; Elafibranor 30 mg/kg QD.
Format: in vivo, mice
Description: Mice were fed Amylin-diet (D09100301, Research Diets, US; 40% fat (18% trans-fat), 40% carbohydrate (20% fructose) and 2% cholesterol) for 37 weeks. Liver biopies were harvested and mice were randomization into treatment groups based on liver Colla1 quantification. Three weeks following biopsy surgery, study animals were dosed orally (P.O.) with either; Vehicle (0.5% HPMC/0.5% PVP/0.1% SDS nanosuspension), MT#1 @ 15 mg/kg QD or MT#1 @ […] QD […] or with Elafibranor @ 30 mg/kg QD (positive control) for eight (8) weeks. A control group of age- and sex-matched mice fed lean chow diet ad libitum were also administered vehicle (P.O) over the same 8 (eight) week period. Following the full dosing schedule, mice were sacrificed, whole livers resected and weighed, fixed in paraformaldehyde before being paraffin embedded. H&E stained slides were then prepared and the average % fractional area of lipid vacuoles (steatosis) determined for each section (@ 20×objective) using Visiomorph software (Visophram, Denmark). The average % fractional area was multiplied by the total liver weight to determine the total liver lipid content per animal. Values expressed as mean of n=9-12+SEM. Dunnett's test one-factor linear model. **: P<0.01, ***: P<0.001 compared to DIO-NASH Vehicle.
Summary of fibrosis stage scores of pre- and post-study liver biopsies harvested from the diet-induced NAFLD/NASH study. Fibrosis stage scores are determined by assessment of picosirius red stained liver sections for relative appearance and location of collagen staining, where; 0=No staining, 1=Perisinusoidal or periportal, 2=Perisinusoidal and periportal and […]=Bridging collagen staining observed. For each group of animals with higher (worsening), same or lower (improvement) in score at post-compared to pre-study is indicated by the height of the bar. One-sided Fisher's exact test with Bonferroni correction. No differences at significance level 0.05.

Compound	fibrotic stage scores (picosirius red stained liver sections, post- compared to pre-study biopsy)	liver steatosis
CSc1ccc(C(=O)/C=C/c2cc(C)c(OC(C)(C)C(=O)O)c(C)c2)cc1 [Elafibranor, reference compound]	Neither MT#1 or Elafibranor (positive control) significantly improved; also recorded: failed to statistically improve	significantly reducing
